Source: US10882860B2, “Treatment of osteoarthritis” (Samumed, LLC, priority 2015, dated 2021)
Marks after values point to notes of the source that are not given here.

What was measured:
[1] = tested on: moderate-to-severe symptomatic knee OA subjects; assay: Phase 1 MRI and radiograph study (bone marrow edema, cartilage thickness, joint space width); format: in vivo, human; conditions: for Bone Marrow Edema [N(%)]: Baseline Diffuse, Week 12 Diffuse / Bone Marrow Edema [N(%)]: Baseline Diffuse, Week 12 Focal / Bone Marrow Edema [N(%)]: Baseline Diffuse, Week 12 None / Bone Marrow Edema [N(%)]: Baseline Focal, Week 12 Diffuse / Bone Marrow Edema [N(%)]: Baseline Focal, Week 12 Focal / Bone Marrow Edema [N(%)]: Baseline Focal, Week 12 None / Bone Marrow Edema [N(%)]: Baseline None, Week 12 Diffuse / Bone Marrow Edema [N(%)]: Baseline None, Week 12 Focal / Bone Marrow Edema [N(%)]: Baseline None, Week 12 None: MRI; for change from baseline in joint space width (radiograph): Week 24
Source text: To assess the safety and efficacy of the compound of Formula (I) (Form 1), magnetic resonance imaging (MM) was used. Safety evaluations included assessment of bone marrow edema by Mill. MM was used to document changes from baseline in total cartilage volume and thickness in the compartments of the target knee joint. Imaging results (safety and exploratory outcomes) in the Phase 1 study are described above.
Knee MRIs were obtained with a 16 channel knee coil on a 3.0T MRI machine using a standard diagnostic protocol (resolution 0.1-0.4 mm). MM scans were collected at the baseline visit (which could occur ≤28 days prior to study injection) and again at Weeks 12 and 24. The sponsor was unblinded after Week 12 for each cohort; site investigators remained blinded.
An exploratory analysis of change in imaging outcomes was conducted using repeated measures analysis of covariance (ANCOVA) adjusting for baseline in the Intention-to-Treat (ITT) population.
As a safety assessment, MRI scans were used to monitor the presence of focal or diffuse bone marrow edema (BME) in all subjects.
Average cartilage thickness over covered subchondral bone was reported for the following four compartments: medial femoral condyles, lateral femoral condyles, medial tibial plateaus, and lateral tibial plateaus.
FIG. 27 depicts the MRI of a knee joint. To determine average cartilage thickness, the cartilage thickness between the subchondral bone area (400 and 404) and the articular cartilage surface (402 and 406) was measured at numerous (˜400-2000) locations in both directions in the parts covered by cartilage (cAB) and averaged. Measurements were performed in three dimensions. Additionally, the average of the lowest 1% of cartilage thickness was also reported for all 4 compartments. The total for both average thickness and lowest thickness were derived by summing each of the 4 compartments' observations.
Radiographs of the target knee were taken during the screening period and at Week 24 to document change from baseline in joint space width (JSW). Table 52 depicts joint space width as measured by radiography for three dosing cohorts and a placebo group.

[2] = tested on: moderate-to-severe symptomatic knee OA subjects; assay: Phase 1 clinical study: biomarkers (COMP, βCTX, P1NP); format: in vivo, human
Source text: The study was a first-in-human, multicenter, 24-week, placebo-controlled, single-dose, dose-escalation safety study of a Wnt pathway inhibitor in subjects suffering from moderate to severe symptomatic knee OA. The sample size was 20 subjects (randomized 4:1, 16 active: 4 placebo) per dosing cohort. Inclusion criteria included: Age, 50-75 years; Western Ontario and McMaster Universities Arthritis Index (WOMAC) Total score, 36-72 (out of 96); Kellgren-Lawrence grade, 2 or 3; and a willingness to omit pain medication for 24 hours prior to pain assessments. Exclusion criteria included: BMI>40; and treatment with IA steroids within 2 months or HA derivatives within 6 months prior to injection. A full list of the inclusion and exclusion criteria for this study can be found on clinicaltrials.gov (NCT02095548).
The dosing sequence included suspension compositions of either 0.03 mg, 0.07 mg, or 0.23 mg of the compound of Formula (I) (Form 1) per 2 mL injection in a vehicle containing 0.5% carboxymethylcellulose sodium and 0.05% polysorbate 80 in pH 7.4 phosphate buffered saline. The placebo contained only the diluent of 0.5% carboxymethylcellulose sodium and 0.05% polysorbate 80 in pH 7.4 phosphate buffered saline. The subjects were given a single, intra-articular injection in the target knee on Treatment Day 1 and participated in a follow-up period of 24 weeks.
Safety, pharmacokinetics (PK), biomarker, and efficacy data were collected at baseline and during the 24-week follow-up period. Safety data included adverse events (AEs), concomitant medications, clinical laboratory sampling, medical history, vital signs, ECGs, hip bone density (DXA) analysis, qCT of the target knee, and evaluation of bone edema via MM. For PK data, samples were collected 0, 4, and 24 hours post dose, and at Weeks 4 and 12. Biomarker data included data for procollagen type 1 N-propeptide (P1NP), beta C-terminal telopeptide of type 1 collagen (βCTX), and cartilage oligomeric matrix protein (COMP). Efficacy data included measurements of WOMAC Total score, WOMAC Function and Pain subscores, pain VAS, Physician Global Assessment of Disease Activity, MM, and radiographs. Efficacy assessments were used to determine the percentage of OMERACT-OARSI “strict” responders. Exploratory analyses of efficacy outcomes were conducted using a baseline-adjusted repeated measures analysis of covariance (ANCOVA) in the Intention-to-Treat (ITT) population. The sponsor was unblinded after Week 12 for each cohort; site investigators remained blinded. All AEs reported in this study were […]. Investigator opinion regarding whether AEs were related to the compound of Formula (I) was also collected for informational purposes.

CC(C)CC(=O)Nc1cncc(-c2ccc3[nH]nc(-c4nc5c(-c6cccc(F)c6)cncc5[nH]4)c3c2)c1 [compound of Formula (I)]
Bone Marrow Edema [N(%)]: Baseline Diffuse, Week 12 Diffuse ([1]; 0.03 mg cohort): 1 (6%) N(%) | Bone Marrow Edema [N(%)]: Baseline Diffuse, Week 12 Focal ([1]; 0.03 mg cohort): 1 (6%) N(%) | Bone Marrow Edema [N(%)]: Baseline Diffuse, Week 12 None ([1]; 0.03 mg cohort): 0 N(%) | Bone Marrow Edema [N(%)]: Baseline Focal, Week 12 Diffuse ([1]; 0.03 mg cohort): 0 N(%) | Bone Marrow Edema [N(%)]: Baseline Focal, Week 12 Focal ([1]; 0.03 mg cohort): 4 (25%) N(%) | Bone Marrow Edema [N(%)]: Baseline Focal, Week 12 None ([1]; 0.03 mg cohort): 0 N(%) | Bone Marrow Edema [N(%)]: Baseline None, Week 12 Diffuse ([1]; 0.03 mg cohort): 0 N(%) | Bone Marrow Edema [N(%)]: Baseline None, Week 12 Focal ([1]; 0.03 mg cohort): 1 (6%) N(%) | Bone Marrow Edema [N(%)]: Baseline None, Week 12 None ([1]; 0.03 mg cohort): 9 (57%) N(%) | Joint space width by radiograph, Week 24 (mm) Actual [Mean (SD)] ([1]; 0.03 mg cohort, N 15): 4.50 (1.72) mm | Joint space width by radiograph, Week 24 (mm) Change from baseline [Mean (SD)] ([1]; 0.03 mg cohort, N 15): 0.00 (0.69) mm | Mean cartilage thickness by MRI, Week 12 (mm) Actual [Mean (SD)] ([1]; 0.03 mg cohort, N 16): 5.38 (1.19) mm | Mean cartilage thickness by MRI, Week 12 (mm) Change from baseline [Mean (SD)] ([1]; 0.03 mg cohort, N 16): −0.06 (0.39) mm | Mean thinnest cartilage by MRI, Week 12 (mm) Actual [Mean (SD)] ([1]; 0.03 mg cohort, N 16): 3.84 (1.57) mm | Mean thinnest cartilage by MRI, Week 12 (mm) Change from baseline [Mean (SD)] ([1]; 0.03 mg cohort, N 16): 0.11 (0.37) mm | area of mean thinnest cartilage by MRI ([1]; 0.03 mg cohort, Week 12): possible trend towards increase | change from baseline in joint space width (radiograph) ([1]; 0.03 mg cohort): no change | Bone Marrow Edema [N(%)]: Baseline Diffuse, Week 12 Diffuse ([1]; 0.07 mg cohort): 0 N(%) | Bone Marrow Edema [N(%)]: Baseline Diffuse, Week 12 Focal ([1]; 0.07 mg cohort): 1 (6%) N(%) | Bone Marrow Edema [N(%)]: Baseline Diffuse, Week 12 None ([1]; 0.07 mg cohort): 0 N(%) | Bone Marrow Edema [N(%)]: Baseline Focal, Week 12 Diffuse ([1]; 0.07 mg cohort): 0 N(%) | Bone Marrow Edema [N(%)]: Baseline Focal, Week 12 Focal ([1]; 0.07 mg cohort): 1 (6%) N(%) | Bone Marrow Edema [N(%)]: Baseline Focal, Week 12 None ([1]; 0.07 mg cohort): 1 (6%) N(%) | Bone Marrow Edema [N(%)]: Baseline None, Week 12 Diffuse ([1]; 0.07 mg cohort): 0 N(%) | Bone Marrow Edema [N(%)]: Baseline None, Week 12 Focal ([1]; 0.07 mg cohort): 2 (13%) N(%) | Bone Marrow Edema [N(%)]: Baseline None, Week 12 None ([1]; 0.07 mg cohort): 11 (69%) N(%) | Joint space width by radiograph, Week 24 (mm) Actual [Mean (SD)] ([1]; 0.07 mg cohort, N 14): 4.16 (1.64) mm | Joint space width by radiograph, Week 24 (mm) Change from baseline [Mean (SD)] ([1]; 0.07 mg cohort, N 14, p = 0.006 versus placebo): 0.59 (0.66)* mm | Mean cartilage thickness by MRI, Week 12 (mm) Actual [Mean (SD)] ([1]; 0.07 mg cohort, N 16): 5.37 (0.71) mm | Mean cartilage thickness by MRI, Week 12 (mm) Change from baseline [Mean (SD)] ([1]; 0.07 mg cohort, N 16): −0.02 (0.25) mm | Mean thinnest cartilage by MRI, Week 12 (mm) Actual [Mean (SD)] ([1]; 0.07 mg cohort, N 16): 3.88 (1.39) mm | Mean thinnest cartilage by MRI, Week 12 (mm) Change from baseline [Mean (SD)] ([1]; 0.07 mg cohort, N 16): 0.10 (0.55) mm | area of mean thinnest cartilage by MRI ([1]; 0.07 mg cohort, Week 12): possible trend towards increase | change from baseline in joint space width (radiograph) ([1]; 0.07 mg cohort): increase | Bone Marrow Edema [N(%)]: Baseline Diffuse, Week 12 Diffuse ([1]; 0.23 mg cohort): 2 (13%) N(%) | Bone Marrow Edema [N(%)]: Baseline Diffuse, Week 12 Focal ([1]; 0.23 mg cohort): 0 N(%) | Bone Marrow Edema [N(%)]: Baseline Diffuse, Week 12 None ([1]; 0.23 mg cohort): 0 N(%) | Bone Marrow Edema [N(%)]: Baseline Focal, Week 12 Diffuse ([1]; 0.23 mg cohort): 0 N(%) | Bone Marrow Edema [N(%)]: Baseline Focal, Week 12 Focal ([1]; 0.23 mg cohort): 8 (50%) N(%) | Bone Marrow Edema [N(%)]: Baseline Focal, Week 12 None ([1]; 0.23 mg cohort): 1 (6%) N(%) | Bone Marrow Edema [N(%)]: Baseline None, Week 12 Diffuse ([1]; 0.23 mg cohort): 0 N(%) | Bone Marrow Edema [N(%)]: Baseline None, Week 12 Focal ([1]; 0.23 mg cohort): 1 (6%) N(%) | Bone Marrow Edema [N(%)]: Baseline None, Week 12 None ([1]; 0.23 mg cohort): 4 (25%) N(%) | Mean cartilage thickness by MRI, Week 12 (mm) Actual [Mean (SD)] ([1]; 0.23 mg cohort, N 15): 5.32 (1.03) mm | Mean cartilage thickness by MRI, Week 12 (mm) Change from baseline [Mean (SD)] ([1]; 0.23 mg cohort, N 15): −0.04 (0.24) mm | Mean thinnest cartilage by MRI, Week 12 (mm) Actual [Mean (SD)] ([1]; 0.23 mg cohort, N 15): 3.01 (1.27) mm | Mean thinnest cartilage by MRI, Week 12 (mm) Change from baseline [Mean (SD)] ([1]; 0.23 mg cohort, N 15): −0.13 (0.30) mm | Joint space width by radiograph, Week 24 (mm) Actual [Mean (SD)] ([1]; 0.23 mg cohort, N 16): 3.47 (1.68) mm | Joint space width by radiograph, Week 24 (mm) Change from baseline [Mean (SD)] ([1]; 0.23 mg cohort, N 16): −0.15 (1.07) mm | change from baseline in joint space width (radiograph) ([1]; 0.23 mg cohort): decrease | exploratory imaging results, dose comparison ([1]; 0.23 mg dose vs 0.03 mg and 0.07 mg doses): less effective | effect on bone marrow edema compared to Placebo ([1]; single IA injection, interim): no appreciable effect | mean cartilage thickness by MRI ([1]; treated subjects, Week 12): no substantial degradation | subjects with improved BME results (focal to none and diffuse to focal) ([1]; treatment groups, baseline to Week 12): 4 | change in COMP ([2]; 0.03 mg cohort): no significant changes | reduction in cartilage oligomeric matrix protein (COMP) ([2]; 0.07 mg cohort, Week 12, P=0.001): 130 ng/mL | change in COMP ([2]; 0.23 mg cohort): no significant changes | change in βCTX or P1NP ([2]; any treatment group): no significant changes
